Values of other authors as cited in patent publication EP0349514A1, “Prolonged-release pharmaceutical composition containing erythromycine, its preparation and its use” (priority 1988, dated 1990).

Details: plasma

CC[C@H]1OC(=O)[C@H](C)[C@@H](O[C@H]2C[C@@](C)(OC)[C@@H](O)[C@H](C)O2)[C@H](C)[C@@H](O[C@@H]2O[C@H](C)C[C@H](N(C)C)[C@H]2O)[C@](C)(O)C[C@@H](C)C(=O)[C@H](C)[C@@H](O)[C@]1(C)O [érythromycine]
temps de demi-vie plasmatique t 1/2: 1,6 h
